Legend:
[1] = system: hPDE5 mutants; experiment: Immunoblot (AcGFP antibody) of hPDE5-AcGFP constructs in HEK293 cells; assay type: cell-based, human; details: compared with wildtype OT-001075
Text: Puro and used as a control.
Cell lysates obtained from hPDE5N construct expressing cells were immunoblotted using the AcGFP antibody (Clonetech, Mountain View, Calif.). Samples were also immunoblotted with the GAPDH antibody to ensure uniform protein loading.

[2] = system: hPDE5 mutants; experiment: GFP expression (MFI) by FACS in HEK293 cells expressing hPDE5 constructs
Method: The mutant library was ligated in frame with an AcGFP reporter at C-terminus and cloned into pLVX-IRES—Puro vectors. […] DNA was extracted from the cell pool, cloned into vectors, and transformed into E. coli. Individual clones were sequenced and cloned in frame with a linker [sequence] […] HEK293 cells were transduced with individual clones and selected with puromycin.
The GFP expression in cells expressing hPDE5 constructs was measured by FACS.
The stability of hPDE5 mutants was measured using FACS and mean fluorescence intensity (MFI) of GFP was calculated.

[3] = target: hPDE5 mutants (Homo sapiens, UniProt O76074); experiment: GFP MFI by FACS in HCT116 cells transduced with hPDE5 constructs; assay type: cell-based; details: HCT-116
[4] = system: hPDE5 mutants; experiment: as above; assay type: cell-based, human; details: for MFI / Stabilization ratio / Vardenafil dose response (MFI of GFP): HCT116; for Sildenafil dose response (MFI) / Tadalafil dose response (MFI): HCT 116
[5] = system: hPDE5 mutants; experiment: Western blot of AcGFP/GFP protein levels in HCT 116 cells expressing hPDE5 mutants; assay type: cell-based, human; details: 10 μM Vardenafil, 24 hours, HCT 116
Method: Protein expression analysis of the combination mutants was performed in parallel via western blot. […] GAPDH levels were also analyzed to ensure even protein loading.

[6] = Sildenafil 0.0005 μM, 48 h, HEK293
[7] = Sildenafil 3.33 μM, 48 h, HEK293
[8] = Sildenafil 10 μM, 48 h, HEK293 (dose titration)
[9] = Sildenafil 10 μM, 48 h, HEK293 (time course)
[10] = Vardenafil 0.0005 μM, 48 h, HEK293
[11] = Vardenafil 3.33 μM, 48 h, HEK293
[12] = Vardenafil (10 μM), 48 h, Table 25, cell line not given in table

OT-001076: hPDE5-F736A AcGFP construct
hPDE5-GFP levels with DMSO treatment (immunoblot) [1]: lower than in the wildtype hPDE5 construct
MFI [2, 6]: 6848
Stabilization ratio [2, 6]: 0.97
MFI [2, 7]: 49220
Stabilization ratio [2, 7]: 7.00
MFI ([2]; Sildenafil 10 μM, 2 h, HEK293): 12088
Stabilization ratio ([2]; Sildenafil 10 μM, 2 h, HEK293): 1.54
MFI ([2]; Sildenafil 10 μM, 4 h, HEK293): 14046
Stabilization ratio ([2]; Sildenafil 10 μM, 4 h, HEK293): 1.77
MFI ([2]; Sildenafil 10 μM, 6 h, HEK293): 16710
Stabilization ratio ([2]; Sildenafil 10 μM, 6 h, HEK293): 2.11
MFI ([2]; Sildenafil 10 μM, 16 h, HEK293): 39029
Stabilization ratio ([2]; Sildenafil 10 μM, 16 h, HEK293): 4.93
MFI ([2]; Sildenafil 10 μM, 24 h, HEK293): 51534
Stabilization ratio ([2]; Sildenafil 10 μM, 24 h, HEK293): 6.51
MFI [2, 8]: 67084
Stabilization ratio [2, 8]: 9.53
MFI [2, 9]: 70811
Stabilization ratio [2, 9]: 8.94
MFI [2, 10]: 11770
Stabilization ratio [2, 10]: 1.04
MFI [2, 11]: 172990
Stabilization ratio [2, 11]: 15.33
MFI ([2]; Vardenafil 10 μM, 48 h, HEK293): 188068
Stabilization ratio ([2]; Vardenafil 10 μM, 48 h, HEK293): 16.66
Stabilization ratio ([2]; Vardenafil (1 μM), 48 h, Table 25, cell line not given in table): 11.52
MFI ([2]; Vardenafil (1 μM), 48 h, Table 25, cell line not given in table (HEK293, HCT-116, SKOV-3)): 110603
MFI [2, 12]: 143351
Stabilization ratio [2, 12]: 14.93

OT-001222: hPDE5 (F736A, D764N) GFP construct
Sildenafil Stabilization ratio ([3]; 10 μM, 48 h): 1.10
Vardenafil Stabilization ratio ([3]; 10 μM, 48 h): 4.26
MFI Sildenafil ([3]; GFP, 10 μM Sildenafil 48 h): 13862
MFI Vardenafil ([3]; GFP, 10 μM Vardenafil 48 h): 53848
Vardenafil Stabilization ratio ([4]; 10 μM, 48 h, HCT-116): 4.26
MFI DMSO ([4]; GFP, DMSO 48 h, HCT-116): 12633
MFI ([4]; Sildenafil 0.04 μM, 24 h): 8688
Stabilization ratio ([4]; Sildenafil 0.04 μM, 24 h): 0.81
MFI ([4]; Sildenafil 0.5 μM, 4 hours): 5322
Stabilization ratio ([4]; Sildenafil 0.5 μM, 4 hours): 1.64
MFI ([4]; Sildenafil 0.5 μM, 8 hours): 5083
Stabilization ratio ([4]; Sildenafil 0.5 μM, 8 hours): 1.57
MFI ([4]; Sildenafil 0.5 μM, 12 hours): 5122
Stabilization ratio ([4]; Sildenafil 0.5 μM, 12 hours): 1.58
MFI ([4]; Sildenafil 0.5 μM, 16 hours): 5600
Stabilization ratio ([4]; Sildenafil 0.5 μM, 16 hours): 1.73
MFI ([4]; Sildenafil 0.5 μM, 20 hours): 6003
Stabilization ratio ([4]; Sildenafil 0.5 μM, 20 hours): 1.85
MFI ([4]; Sildenafil 0.5 μM, 24 hours): 6144
Stabilization ratio ([4]; Sildenafil 0.5 μM, 24 hours): 1.89
MFI ([4]; Sildenafil 0.5 μM, 48 hours): 6682
Stabilization ratio ([4]; Sildenafil 0.5 μM, 48 hours): 2.06
MFI ([4]; Sildenafil 0.5 μM, 72 hours): 6906
Stabilization ratio ([4]; Sildenafil 0.5 μM, 72 hours): 2.13
MFI ([4]; Sildenafil 3.33 μM, 24 h): 10384
Stabilization ratio ([4]; Sildenafil 3.33 μM, 24 h): 0.97
MFI ([4]; Sildenafil 5 μM, 4 hours): 6314
Stabilization ratio ([4]; Sildenafil 5 μM, 4 hours): 1.88
MFI ([4]; Sildenafil 5 μM, 8 hours): 7021
Stabilization ratio ([4]; Sildenafil 5 μM, 8 hours): 2.09
MFI ([4]; Sildenafil 5 μM, 12 hours): 9199
Stabilization ratio ([4]; Sildenafil 5 μM, 12 hours): 2.73
MFI ([4]; Sildenafil 5 μM, 16 hours): 12280
Stabilization ratio ([4]; Sildenafil 5 μM, 16 hours): 3.65
MFI ([4]; Sildenafil 5 μM, 20 hours): 13280
Stabilization ratio ([4]; Sildenafil 5 μM, 20 hours): 3.95
MFI ([4]; Sildenafil 5 μM, 24 hours): 16705
Stabilization ratio ([4]; Sildenafil 5 μM, 24 hours): 4.97
MFI ([4]; Sildenafil 5 μM, 48 hours): 22061
Stabilization ratio ([4]; Sildenafil 5 μM, 48 hours): 6.56
MFI ([4]; Sildenafil 5 μM, 72 hours): 26995
Stabilization ratio ([4]; Sildenafil 5 μM, 72 hours): 8.02
MFI ([4]; Sildenafil 10 μM, 24 h): 13263
Stabilization ratio ([4]; Sildenafil 10 μM, 24 h): 1.24
Sildenafil dose response (MFI) ([4]; Sildenafil 11.11 μM, 48 h): 5675
MFI ([4]; Sildenafil 30 μM, 24 h): 26837
Stabilization ratio ([4]; Sildenafil 30 μM, 24 h): 2.5
Sildenafil dose response (MFI) ([4]; Sildenafil 33.33 μM, 48 h): 9677
Sildenafil dose response (MFI) ([4]; Sildenafil 100.00 μM, 48 h): 37494
Destabilizing mutation co-efficient ratio ([4]; Sildenafil dose response experiment (Table 27), vs OT-001216): 0.17
Vardenafil dose response (MFI of GFP) ([4]; Table 33, 0.01 μM, 48 h): 4444
Vardenafil dose response (MFI of GFP) ([4]; Table 33, 0.04 μM, 48 h): 4934
Vardenafil dose response (MFI of GFP) ([4]; Table 33, 3.33 μM, 48 h): 10516
Vardenafil dose response (MFI of GFP) ([4]; Table 33, 10.00 μM, 48 h): 24927
MFI ([4]; Tadalafil 11.11 μM, 24 h): 13789
Stabilization ratio ([4]; Tadalafil 11.11 μM, 24 h): 2.28
Tadalafil dose response (MFI) ([4]; Tadalafil 11.11 μM, 48 h): 8299
MFI ([4]; Tadalafil 33.33 μM, 24 h): 20464
Stabilization ratio ([4]; Tadalafil 33.33 μM, 24 h): 3.39
Tadalafil dose response (MFI) ([4]; Tadalafil 33.33 μM, 48 h): 15831
MFI ([4]; Tadalafil 100 μM, 24 h): 23542
Stabilization ratio ([4]; Tadalafil 100 μM, 24 h): 3.9
Tadalafil dose response (MFI) ([4]; Tadalafil 100.00 μM, 48 h): 31020
Destabilizing mutation coefficient ([4]; Tadalafil dose response experiment (Table 29), vs OT-001216): 0.17
MFI ([4]; Vardenafil 0.04 μM, 24 h): 6174
Stabilization ratio ([4]; Vardenafil 0.04 μM, 24 h): 0.80
MFI ([4]; Vardenafil 3.33 μM, 24 h): 29520
Stabilization ratio ([4]; Vardenafil 3.33 μM, 24 h): 3.84
MFI ([4]; Vardenafil 10 μM, 24 h): 29971
Stabilization ratio ([4]; Vardenafil 10 μM, 24 h): 3.90
MFI ([4]; Vardenafil 30 μM, 24 h): 46109
Stabilization ratio ([4]; Vardenafil 30 μM, 24 h): 5.99
Destabilizing mutation coefficient ([4]; Vardenafil dose response experiment (Table 28), vs OT-001216): 0.12
Destabilizing mutation coefficient ([4]; vs wildtype OT-001216, absence of ligand, HCT-116): 0.19
AcGFP protein levels (western blot) [5]: Vardenafil dependent stabilization of AcGFP protein levels
